Series [1] relates to Mycobacterium tuberculosis. The experiment in a line: Antimycobacterial activity against Mycobacterium tuberculosis H37Rv. Type of series: functional.
Series [2] relates to Mycobacterium tuberculosis. The series can be described thus: Antimycobacterial activity against Mycobacterium tuberculosis H37Rv by microplate alamar blue assay. In kind it is functional.
Series [3] in a line: Selectivity index, ratio of IC50 for african green monkey Vero cells to MIC90 for Mycobacterium tuberculosis H37Rv. Type of series: toxicity, cell-based. The settings on record: read-out: Selectivity Index.
The test system of series [4] is Vero. The experiment in a line: Cytotoxicity against Chlorocebus aethiops (African green monkey) Vero cells. As to conditions: Chlorocebus sabaeus. Type of series: cell-based.
In series [5] the test system is Brain. The experiment in a line: Inhibition of free-radical-induced lipid peroxidation in Rattus norvegicus (rat) brain homogenates. Type of series: functional, tissue-based.
Series [6] has as its target T1, Polyunsaturated fatty acid 5-lipoxygenase (Rattus norvegicus, UniProt P12527).
T1 sequence (P12527 whole entry): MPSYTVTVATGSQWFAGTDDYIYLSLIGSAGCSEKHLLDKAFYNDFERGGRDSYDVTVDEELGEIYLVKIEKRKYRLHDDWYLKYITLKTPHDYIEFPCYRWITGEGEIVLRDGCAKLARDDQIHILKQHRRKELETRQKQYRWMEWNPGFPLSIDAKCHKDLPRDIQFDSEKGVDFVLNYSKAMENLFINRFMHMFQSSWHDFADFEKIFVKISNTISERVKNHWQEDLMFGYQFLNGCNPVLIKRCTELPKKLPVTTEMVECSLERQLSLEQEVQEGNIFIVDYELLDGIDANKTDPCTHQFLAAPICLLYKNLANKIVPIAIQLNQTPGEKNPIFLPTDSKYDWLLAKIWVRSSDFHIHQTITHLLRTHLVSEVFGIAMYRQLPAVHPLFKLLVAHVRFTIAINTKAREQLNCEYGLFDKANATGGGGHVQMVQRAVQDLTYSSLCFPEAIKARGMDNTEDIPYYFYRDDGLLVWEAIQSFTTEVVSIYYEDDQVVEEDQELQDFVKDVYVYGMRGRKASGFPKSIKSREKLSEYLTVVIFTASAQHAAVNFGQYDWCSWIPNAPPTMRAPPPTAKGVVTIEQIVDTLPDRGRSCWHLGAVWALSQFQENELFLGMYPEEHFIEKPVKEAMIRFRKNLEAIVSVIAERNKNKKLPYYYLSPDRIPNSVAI
The experiment in a line: Inhibition of Rattus norvegicus (rat) 5-lipoxygenase.

The subject of series [7] is Plasmodium falciparum. The series can be described thus: Antiplasmodial activity against Plasmodium falciparum. Type of series: functional, organism-based.
The test system of series [8] is Mycobacterium tuberculosis. The experiment in a line: Antimycobacterial activity against Mycobacterium tuberculosis H37Ra. In kind it is functional.

≈ marks a conversion by molar mass, not a printed value.

In general, MIC90 refers to an inhibitory concentration at the 90% level, which refers to growth in some studies and to a panel of isolates in others. As for `CC(C)=CCc1c(O)ccc2[nH]c3ccc(C=O)cc3c12` [MICROMELINE], the MIC90 in series [1] is 31.5 µg/mL (≈ 113 µM); in series [2], greater than 128 µM.

The term IC50 denotes the concentration that gives 50% inhibition. As for `COC(=O)c1ccc2[nH]c3cc(O)ccc3c2c1` [CLAUSINE M], the selectivity ratio in series [3] was 1.8. For the same compound, the concentration for half-maximal inhibition (IC50) in series [4] was determined as 35 µM. In series [2], this compound registered an MIC90 of 19 µM (≈ 4.58 µg/mL).

On to `COC1=C(C)C(=O)c2[nH]c3ccccc3c2C1=O` [3-METHOXY-2-METHYLCARBAZOLE-1,4-QUINONE], for which the selectivity ratio in series [3] is greater than 16. This compound showed a 50% inhibitory concentration (IC50) in series [4] greater than 128 µM. Also, in series [2], the MIC90 amounted to 8 µM (≈ 1.93 µg/mL).

On to `Cc1ccc2[nH]c3ccc4occc4c3c2c1` [EUSTIFOLINE-D], for which the IC50 in series [4] was greater than 128 µM. Besides, in series [2], the MIC90 was greater than 128 µM.

Regarding `O=Cc1cc2c(cc1O)[nH]c1cc(O)ccc12` [CLAUSINE O], in series [3], the selectivity ratio is 1.3. Further, in series [4], the IC50 stood at 114 µM. This compound also registered an MIC90 in series [2] of 89 µM (≈ 20.2 µg/mL).

Compound `COc1ccc2c(c1)[nH]c1ccc(C(=O)O)cc12` [CLAUSINE N] displayed an MIC90 in series [2] greater than 128 µM.

For `COc1c(C)c(C[C@@H](C)O)c2[nH]c3ccc(CC=C(C)C)cc3c2c1O` [(R)-(-)-NEOCARAZOSTATIN B], it took 0.39 µM to reach half-maximal inhibition in series [5] (IC50).

Consider `CO[C@H]1/C=C/O[C@@]2(C)Oc3c(C)c(O)c4c(O)c(c(/C=N/N5CCN(C)CC5)c(O)c4c3C2=O)NC(=O)/C(C)=C\C=C\[C@H](C)[C@H](O)[C@@H](C)[C@@H](O)[C@@H](C)[C@H](OC(C)=O)[C@@H]1C` [RIFAMPIN], for which the selectivity ratio in series [3] is 1170. The compound further gave a half-inhibitory concentration (IC50) in series [4] of 105 µM. This compound also showed an MIC90 in series [2] of 0.09 µM (≈ 0.0741 µg/mL).

`CC(C)=CCc1cc2c(cc1O)[nH]c1ccc(C)cc12` [SIAMENOL]: in series [3], the selectivity ratio came out at 0.7. In addition, 15 µM corresponded to half-maximal inhibition in series [4] (IC50). Moreover, the MIC90 in series [2] is 22 µM (≈ 5.84 µg/mL).

As to `COc1ccc2c(c1)[nH]c1ccc(C)cc12` [7-METHOXY-3-METHYLCARBAZOLE], the MIC90 in series [2] is greater than 128 µM.

For the compound `Cc1c(O)cc2c([nH]c3c(O)ccc(CO)c32)c1C1OC1(C)CCC(C)C` (racemic) [RAC-EPOCARBAZOLIN A], half-maximal inhibition in series [6] (IC50) was put at 2.4 µM.

`CC[C@H](C)CCC1(C)OC1c1c(C)c(O)cc2c1[nH]c1c(O)ccc(CO)c12` (stereo partly specified) [EPOCARBAZOLIN B] showed an IC50 in series [6] of 2.6 µM.

Consider `COC(=O)c1ccc2[nH]c3cc(OC)ccc3c2c1` [CLAUSINE C], for which, in series [2], the MIC90 is greater than 128 µM.

Compound `COc1ccc2[nH]c3ccc(C)cc3c2c1` [GLYCOZOLINE] displayed an MIC90 in series [2] greater than 128 µM.

Regarding `COc1ccc2[nH]c3ccc(C=O)cc3c2c1`, the MIC90 in series [1] came to 15.6 µg/mL (≈ 69.3 µM); in series [2] it was 99 µM (≈ 22.3 µg/mL). The selectivity ratio in series [3] was greater than 1.3. Also, the IC50 in series [4] is greater than 128 µM.

For `COc1ccc2c(c1)[nH]c1cc(OC)c(C=O)cc12` [LANSINE], in series [3], the selectivity ratio is less than 0.8. In series [4], this compound came in with a 50% inhibitory concentration (IC50) of 96 µM. This compound displayed an MIC90 in series [2] greater than 128 µM.

For the compound `COC(=O)c1ccc2[nH]c3ccc(OC)cc3c2c1`, in series [3], the selectivity ratio is greater than 4. In series [4], this compound came in with an IC50 greater than 128 µM. The same compound came in with an MIC90 in series [2] of 32 µM (≈ 8.17 µg/mL).

In series [7], `COC(=O)c1cc2c(cc1OC)[nH]c1cc(OC)ccc12` [CLAUSZOLINE C] yielded an IC50 of 5.5 µg/mL (≈ 19.3 µM).

In the case of `COc1ccc2c(c1)[nH]c1cc(OC)c(C(=O)O)cc12` [CLAUSINE K], the MIC90 in series [8] is 100 µg/mL (≈ 369 µM); in series [2], greater than 128 µM. Also, the selectivity ratio in series [3] is less than 0.2. Moreover, in series [4], the IC50 was determined as 25 µM.

For `COc1c(C)c(C[C@@H](C)OC(C)=O)c2[nH]c3ccc(Br)cc3c2c1OC(C)=O`, the selectivity ratio in series [3] came to 0.5. This compound returned an IC50 in series [4] of 25 µM. For the same compound, in series [2], the MIC90 worked out at 55 µM (≈ 24.7 µg/mL).

For `NNC(=O)c1ccncc1` [ISONIAZID], the selectivity ratio in series [3] is greater than 320. In series [4], this compound displayed an IC50 greater than 128 µM. Moreover, the MIC90 in series [2] amounted to 0.4 µM (≈ 0.0549 µg/mL).

For the compound `COc1ccc2c(c1)[nH]c1cc(OC)c(C)cc12`, the IC50 in series [4] is greater than 128 µM. For the same compound, the MIC90 in series [2] is greater than 128 µM.

For the compound `Cc1ccc2[nH]c3ccc(O)cc3c2c1` [GLYCOZOLININE], the selectivity ratio in series [3] came to 0.5. In series [4], this compound gave a 50% inhibitory concentration (IC50) of 57 µM. This compound also had an MIC90 in series [2] of 123 µM (≈ 24.3 µg/mL).

Regarding `COc1ccc2c(c1)[nH]c1ccc(C=O)cc12` [CLAUSZOLINE K], the MIC90 in series [2] is greater than 128 µM.

For the compound `COc1ccc2[nH]c3ccc(C=O)cc3c2c1Br` [5-BROMO-3-FORMYL-6-METHOXYCARBAZOLE], the selectivity ratio in series [3] is less than 0.6. In series [4], this compound had an IC50 of 78 µM. This compound registered an MIC90 in series [2] greater than 128 µM.

(Values after ChEMBL document CHEMBL3046421, “Transition metals in organic synthesis - Part 83#: Synthesis and pharmacological potential of carbazoles” (Med Chem Res, 2008).)
